Key:
[1] = system: HL-60; experiment: MTT cell viability assay, HL-60 leukaemia cells; type: cell-based; conditions: Homo sapiens, 72 h, read-out: IC50 value, HL-60
Procedure: (§1) The four human tumour cell lines MCF-7, HCT-116, HL-60 and HeLa used in this study were obtained from the VACSERA (Giza, Egypt) cell culture unit that were originally acquired from ATCC (Manassas, VA, USA). All the human tumour cell lines were cultured in Dulbecco’s Modified Eagle’s Medium (DMEM) with 10% foetal bovine serum, 2 mM L-glutamine and 100 µg/mL penicillin/streptomycin. Cells were maintained at 37 °C in 5% CO2 in a humidified incubator. All cells were sub-cultured 3 times/week by trypsinisation using TrypLE Express (1X).
(§2) The quinoline compounds were evaluated for antiproliferative effect using the MTT viability assay of four cancer cell lines (MCF-7, HCT-116, HL-60 and HeLa) and normal breast cells MCF-10A to calculate the relative IC50 values for each compound. Cells were seeded in triplicate in 96-well plates at a density of 10 × 10^3 cells/ml in a total volume of 200 µl per well. 0.1% of DMSO was used as a vehicle control. Following, the cells were treated with 2 µl test compound (from stock solutions in ethanol) to furnish the concentration range of study, 1 nM to 50 µM, and re-incubated for a further 72 h. The culture medium was then removed, and the cells washed with 100 µL phosphate buffered saline (PBS) and 50 µL MTT added, to reach a final concentration of 1 mg/mL. Cells were incubated for 2 h in darkness at 37 °C. Solubilisation was begun through the addition of […] DMSO, and the cells maintained at room temperature in darkness for 20 min to ensure thorough colour diffusion before reading the absorbance. Plates were incubated for 72 h at 37 °C + 5% CO2. The MTT (5 mg/mL in PBS) was added and incubated for another 4 h, and the optical density was detected with a microplate reader at 570 nm. Results were expressed as percentage viability relative to vehicle control (100%). Dose response curves were plotted and IC50 values (concentration of drug resulting in 50% reduction in cell survival) were obtained using the commercial software package Prism (GraphPad Software, Inc., La Jolla, CA, USA). All the experiments were repeated in at least three independent experiments.

[2] = system: HCT-116; experiment: MTT cell viability assay, HCT-116 colorectal carcinoma cells; type: cell-based; conditions: Homo sapiens, 72 h
Procedure: as §1, §2

[3] = system: MCF-7; experiment: MTT cell viability assay, MCF-7 breast adenocarcinoma cells; type: cell-based; conditions: Homo sapiens, MCF7, 72 h, read-out: IC50 value, MCF-7
Procedure: as §1, §2

[4] = system: HeLa; experiment: MTT cell viability assay, HeLa cervical adenocarcinoma cells; type: cell-based; conditions: Homo sapiens, 72 h
Procedure: as §1, §2

[5] = system: MCF-7, HL-60, HCT-116 and HeLa; experiment: MTT cell viability assay, statements over all four cancer cell lines; type: cell-based, human
Procedure: as §1, §2

[6] = system: bovine brain tubulin; experiment: Tubulin polymerisation assay; type: biochemical; conditions: for IC50: Tubulin was at 10 µM, read-out: Tubulin assembly IC50 (inhibition of tubulin polymerisation)
Procedure: The assembly of purified bovine tubulin was monitored using a kit, BK006, purchased from Cytoskeleton Inc., (Denver, CO, USA). The assay was carried out in accordance with the manufacturer’s instructions using the standard assay conditions. Briefly, purified ([…]) in a buffer consisting of 80 mM PIPES (pH 6.9), 0.5 mM EGTA, 2 mM MgCl2, 1 mM GTP and 10% glycerol was incubated at 37 °C in the presence of either vehicle (2% (v/v) ddH2O), CA-4, or the quinoline compounds. Light is scattered proportionally to the concentration of polymerised microtubules in the assay. Therefore, tubulin assembly was monitored turbidimetrically at 340 nm in a Spectramax 340 PC spectrophotometer (Molecular Devices, Sunnyvale, CA, USA). The concentration that inhibits tubulin polymerisation by 50% (IC50) was determined using area under the curve (AUC). The AUC of the untreated controls were considered as 100% polymerisation. The IC50 value for each compound was computed using GraphPad Prism Software.

SMILES	IC50 [1]	IC50 [2]	melting point	IC50 [3]	IC50 [4]	IC50 over all four cancer cell lines [5]	fold less active than CA-4 (tubulin assembly) [6]	IC50 [6]	IC50 ([5]; Homo sapiens)	fold less active than 12c (tubulin polymerisation) [6]
COc1cc(C2=NC(=Cc3cc4cccc(C)c4nc3OC)C(=O)O2)cc(OC)c1OC [Compound 12d, 4-[(2-Methoxy-8-methylquinolin-3-yl)methylene]-2–(3,4,5-trimethoxyphenyl) oxazol-5(4H)-one]	0.268 ± 0.093 µM	0.191 ± 0.001 µM	236 to 238 °C	0.154 ± 0.071 µM	0.153 ± 0.083 µM	–	–	–	–	–
COc1ccc2cc(C=C3N=C(c4cc(OC)c(OC)c(OC)c4)OC3=O)c(OC)nc2c1 [Compound 12f, 4-[(2,7-Dimethoxyquinolin-3-yl)methylene]-2–(3,4,5-trimethoxyphenyl)oxazol-5(4H)-one]	0.352 ± 0.021 µM	0.066 ± 0.005 µM	221 to 223 °C	0.052 ± 0.0021 µM	0.138 ± 0.026 µM	–	–	–	–	–
COc1cc(C2=NC(=Cc3cc4cccc(C)c4nc3OC)C(=O)N2)cc(OC)c1OC [Compound 13d, 5-[(2-Methoxy-8-methylquinolin-3-yl)methylene]-2–(3,4,5-trimethoxyphenyl)-3,5-dihydro-4H-imidazol-4-one]	0.096 ± 0.006 µM	0.109 ± 0.011 µM	233 to 235 °C	0.137 ± 0.023 µM	0.126 ± 0.044 µM	submicromolar	–	–	–	–
COc1cc(C2=NC(=Cc3cc4ccc(OC(C)C)cc4nc3OC)C(=O)O2)cc(OC)c1OC [Compound 12g, 4-[(7-Isopropoxy-2-methoxyquinolin-3-yl)methylene]-2–(3,4,5-trimethoxyphenyl)oxazol-5(4H)-one]	1.82 ± 0.64 µM	7.88 ± 0.3 µM	227 to 229 °C	1.51 ± 0.22 µM	1.75 ± 0.5 µM	–	4 fold	8.23 µM	–	–
COc1cc(C2=NC(=Cc3cc4ccc(OCc5ccccc5)cc4nc3OC)C(=O)N2)cc(OC)c1OC [Compound 13h, 5-[(7-(Benzyloxy)-2-methoxyquinolin-3-yl)methylene]-2–(3,4,5-trimethoxyphenyl)-3,5-dihydro-4H-imidazol-4-one]	4.93 ± 0.26 µM	2.61 ± 0.43 µM	259 to 261 °C	1.7 ± 0.821 µM	2.07 ± 0.39 µM	–	–	–	–	–
COc1cc(C2=NC(=Cc3cc4ccc(OCc5ccccc5)cc4nc3OC)C(=O)O2)cc(OC)c1OC [Compound 12h, 4-[(7-(Benzyloxy)-2-methoxyquinolin-3-yl)methylene]-2–(3,4,5-trimethoxyphenyl)oxazol-5(4H)-one]	4.66 ± 0.26 µM	1.56 ± 0.72 µM	247 to 249 °C	1.93 ± 0.612 µM	1.05 ± 0.84 µM	–	–	–	–	–
COc1ccc2cc(C=C3N=C(c4cc(OC)c(OC)c(OC)c4)NC3=O)c(OC)nc2c1 [Compound 13f, 5-[(2,7-Dimethoxyquinolin-3-yl)methylene]-2–(3,4,5-trimethoxyphenyl)-3,5-dihydro-4H-imidazol-4-one]	0.21 ± 0.098 µM	0.187 ± 0.009 µM	241 to 243 °C	0.092 ± 0.0062 µM	0.101 ± 0.09 µM	–	–	–	–	–
COc1cc(C2=NC(=Cc3cc4ccccc4nc3OC)C(=O)N2)cc(OC)c1OC [Compound 13a, 5-[(2-Methoxyquinolin-3-yl)methylene]-2–(3,4,5-trimethoxyphenyl)-3,5-dihydro-4H-imidazol-4-one]	1.56 ± 0.055 µM	8.21 ± 0.0077 µM	230 to 232 °C	1.03 ± 0.055 µM	1.41 ± 0.096 µM	–	–	–	> 1 µM	–
COc1cc(C2=NC(=Cc3cc4cc(C)ccc4nc3OC)C(=O)O2)cc(OC)c1OC [Compound 12b, 4-[(2-Methoxy-6-methylquinolin-3-yl)methylene]-2–(3,4,5-trimethoxyphenyl) oxazol-5(4H)-one]	0.197 ± 0.041 µM	0.184 ± 0.007 µM	218 to 220 °C	0.132 ± 0.013 µM	0.117 ± 0.085 µM	–	–	–	–	–
COc1cc(C2=NC(=Cc3cc4ccc(OC(C)C)cc4nc3OC)C(=O)N2)cc(OC)c1OC [Compound 13g, 5-((7-Isopropoxy-2-methoxyquinolin-3-yl)methylene)-2–(3,4,5-trimethoxyphenyl)-3,5-dihydro-4H-imidazol-4-one]	5.11 ± 0.41 µM	1.62 ± 0.95 µM	238 to 240 °C	5.56 ± 0.133 µM	4.44 ± 0.6 µM	–	–	–	–	–
COc1ccc2nc(OC)c(C=C3N=C(c4cc(OC)c(OC)c(OC)c4)NC3=O)cc2c1 [Compound 13e, 5-[(2,6-Dimethoxyquinolin-3-yl)methylene]-2–(3,4,5-trimethoxyphenyl)-3,5-dihydro-4H-imidazol-4-one]	0.272 ± 0.05 µM	0.085 ± 0.003 µM	253 to 255 °C	0.042 ± 0.0025 µM	0.062 ± 0.003 µM	–	–	1.48 µM	–	–
COc1cc(C2=NC(=Cc3cc4ccc(C)cc4nc3OC)C(=O)N2)cc(OC)c1OC [Compound 13c, 5-[(2-Methoxy-7-methylquinolin-3-yl)methylene]-2–(3,4,5-trimethoxyphenyl)-3,5-dihydro-4H-imidazol-4-one]	0.661 ± 0.026 µM	0.284 ± 0.083 µM	236 to 238 °C	0.223 ± 0.056 µM	0.733 ± 0.091 µM	submicromolar	–	20.3 µM	–	16 fold
COc1ccc2nc(OC)c(/C=C3\N=C(c4cc(OC)c(OC)c(OC)c4)OC3=O)cc2c1 [Compound 12e]	0.068 ± 0.034 µM	0.031 ± 0.001 µM	242 to 244 °C	0.056 ± 0.027 µM	0.01 ± 0.004 µM	–	–	2.26 µM	–	–
COc1cc(C2=NC(=Cc3cc4ccccc4nc3OC)C(=O)O2)cc(OC)c1OC [Compound 12a, 4-[(2-Methoxyquinolin-3-yl)methylene]-2–(3,4,5-trimethoxyphenyl)oxazol-5(4H)-one]	3.309 ± 0.022 µM	2.01 ± 0.08 µM	215 to 217 °C	1.71 ± 0.04 µM	2.11 ± 0.034 µM	–	6 fold	14 µM	–	–
COc1cc(C2=NC(=Cc3cc4cc(C)ccc4nc3OC)C(=O)N2)cc(OC)c1OC [Compound 13b, 5-[(2-Methoxy-6-methylquinolin-3-yl)methylene]-2–(3,4,5-trimethoxyphenyl)-3,5-dihydro-4H-imidazol-4-one]	0.24 ± 0.012 µM	0.173 ± 0.025 µM	223 to 225 °C	0.063 ± 0.0011 µM	0.188 ± 0.013 µM	submicromolar	–	–	–	–

Source: paper PMC7993375, “Discovery of novel quinoline-based analogues of combretastatin A-4 as tubulin polymerisation inhibitors with apoptosis inducing activity and potent anticancer effect” (Journal of Enzyme Inhibition and Medicinal Chemistry, 2021)
